Experiments:
SUMO = biological target: T1, SUMO (Homo sapiens, UniProt Q9UBT2); assay: SUMO activity (Table I, biological activities); format: biochemical; design: key: + (less active); ++ (active); +++ (most active)
T1 sequence (Q9UBT2 1-640): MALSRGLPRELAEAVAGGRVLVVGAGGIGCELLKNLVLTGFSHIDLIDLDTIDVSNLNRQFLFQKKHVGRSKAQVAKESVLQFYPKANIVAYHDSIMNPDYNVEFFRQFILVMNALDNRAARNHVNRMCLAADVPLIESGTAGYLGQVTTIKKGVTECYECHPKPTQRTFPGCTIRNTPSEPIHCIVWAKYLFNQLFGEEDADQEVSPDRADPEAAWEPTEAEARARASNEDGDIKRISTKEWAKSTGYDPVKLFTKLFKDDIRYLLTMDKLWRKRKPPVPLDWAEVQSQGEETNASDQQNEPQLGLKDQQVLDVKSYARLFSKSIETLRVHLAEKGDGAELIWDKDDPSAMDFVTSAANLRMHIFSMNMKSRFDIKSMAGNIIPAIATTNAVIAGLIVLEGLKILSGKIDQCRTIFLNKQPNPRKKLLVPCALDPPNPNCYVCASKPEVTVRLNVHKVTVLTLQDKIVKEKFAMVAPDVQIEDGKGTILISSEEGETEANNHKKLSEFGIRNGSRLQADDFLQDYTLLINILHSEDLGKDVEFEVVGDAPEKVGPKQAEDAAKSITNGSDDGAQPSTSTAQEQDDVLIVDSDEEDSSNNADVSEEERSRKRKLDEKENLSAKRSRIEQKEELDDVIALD
T1 sequence (Q9UBE0 1-346 partner): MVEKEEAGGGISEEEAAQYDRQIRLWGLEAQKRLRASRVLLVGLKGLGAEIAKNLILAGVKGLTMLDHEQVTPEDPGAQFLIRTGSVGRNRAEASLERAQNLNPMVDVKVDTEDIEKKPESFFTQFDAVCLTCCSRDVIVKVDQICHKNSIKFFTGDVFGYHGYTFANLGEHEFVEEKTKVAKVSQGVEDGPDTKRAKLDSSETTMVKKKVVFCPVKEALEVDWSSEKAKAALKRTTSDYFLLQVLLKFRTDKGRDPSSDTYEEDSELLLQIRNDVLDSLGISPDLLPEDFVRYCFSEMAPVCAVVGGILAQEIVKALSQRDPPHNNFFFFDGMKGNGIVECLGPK

c-Myc = c-Myc activity (Table I, biological activities); design: key: + (less active); ++ (active); +++ (most active)

| Structure (SMILES) | SUMO (SUMO) | c-Myc (c-Myc) |
| --- | --- | --- |
| COC(=O)C1=C(C(=O)NC2CCN(C(=O)OC(C)(C)C)CC2)C2C=CC1(C(Cc1ccccc1)Nc1cc(F)cc(F)c1)O2 (centres unmarked) [Compound 242] | ++ | + |
| COC(=O)C1=C(C(=O)NC(C)C(N)=O)C2C=CC1(C(Cc1ccccc1)Nc1cc(F)cc(F)c1)O2 (centres unmarked) [Compound 243] | ++ | + |
| COC(=O)CNC(=O)C1=C(C(=O)OC)C2(C(Cc3ccccc3)Nc3cc(F)cc(F)c3)C=CC1O2 (centres unmarked) [Compound 245] | +++ | ++ |
| CCOc1cccc(NC(Cc2ccccc2)C23C=CC(O2)C(C(=O)NC2CCN(C)CC2)=C3C(=O)OC)c1 (centres unmarked) [Compound 247] | +++ | + |
| CCOc1cccc(NC(Cc2ccccc2)C23C=CC(O2)C(C(=O)NC2CCN(C)C2)=C3C(=O)OC)c1 (centres unmarked) [Compound 248] | +++ | ++ |
| CCOc1cccc(NC(Cc2ccccc2)C23C=CC(O2)C(C(N)=O)=C3C(=O)OC)c1 (centres unmarked) [Compound 249] | ++ | + |
| CCOc1cccc(NC(Cc2ccccc2)C23C=CC(O2)C(C(=O)NCCN(C)C)=C3C(=O)OC)c1 (centres unmarked) [Compound 251] | +++ | + |
| CCOc1cccc(NC(Cc2ccccc2)C23C=CC(O2)C(C(=O)NCCN2CCOCC2)=C3C(=O)OC)c1 (centres unmarked) [Compound 252] | +++ | ++ |
| CCOc1cccc(NC(Cc2ccccc2)C23C=CC(O2)C(C(=O)Nc2ccncc2)=C3C(=O)OC)c1 (centres unmarked) [Compound 253] | ++ | + |
| CCOc1cccc(NC(Cc2ccccc2)C23C=CC(O2)C(C(=O)NCc2ccncc2)=C3C(=O)OC)c1 (centres unmarked) [Compound 254] | ++ | + |
| COC(=O)C1=C(C(=O)NC2CCN(C)C2)C2C=CC1(C(Cc1ccccc1)Nc1cc(F)cc(F)c1)O2 (centres unmarked) [Compound 256] | ++ | + |
| COC(=O)C1=C(C(=O)NC2CCN(C)CC2)C2C=CC1(C(Cc1ccccc1)Nc1c(F)cccc1F)O2 (centres unmarked) [Compound 258] | ++ | + |
| CCOC(=O)C1=C(C(=O)OCC)C2(C(Cc3ccccc3)Nc3ccccc3)C=CC1(C)O2 (centres unmarked) [Compound 260] | ++ | + |
| COC(=O)C1=C(C(=O)NC2CCN(C)CC2)C2C=CC1(C(Cc1ccccc1)Nc1ccc(F)cc1)O2 (centres unmarked) [Compound 262] | ++ | ++ |
| COC(=O)C1=C(C(=O)NC2CCN(C)C2)C2C=CC1(C(Cc1ccccc1)Nc1ccc(F)cc1)O2 (centres unmarked) [Compound 263] | +++ | ++ |
| COC(=O)C1=C(C(=O)NCCN(C)C)C2C=CC1(C(Cc1ccccc1)Nc1ccc(F)cc1)O2 (centres unmarked) [Compound 264] | +++ | ++ |
| CCCCC(Nc1cc(F)cc(F)c1)C12C=CC(O1)C(C(=O)NC1CCN(C)CC1)=C2C(=O)OC (centres unmarked) [Compound 266] | +++ | + |
| CCCCC(Nc1ccccc1)C12C=CC(O1)C(C(=O)NC1CCN(C)CC1)=C2C(=O)OC (centres unmarked) [Compound 267] | ++ | ++ |
| COC(=O)C1=C(C(=O)NC2CCN(C)CC2)C2C=CC1(C(Cc1ccccc1)Nc1ccccc1F)O2 (centres unmarked) [Compound 272] | ++ | + |
| COC(=O)C1=C(C(N)=O)C2C=CC1(C(Cc1ccccc1)Nc1ccccc1)O2 (centres unmarked) [Compound 274] | +++ | ++ |
| COC(=O)C1=C(C(=O)Nc2cccc(F)c2)C2C=CC1(C(Cc1ccccc1)Nc1ccccc1)O2 (centres unmarked) [Compound 276] | ++ | + |
| COC(=O)C1=C(C(=O)NC2CCN(C(C)C)CC2)C2C=CC1(C(Cc1ccccc1)Nc1ccccc1)O2 (centres unmarked) [Compound 277] | +++ | ++ |

| Structure (SMILES) | SUMO (SUMO) | c-Myc (c-Myc) |
| --- | --- | --- |
| COCCN1CCC(NC(=O)C2=C(C(=O)OC)C3(C(Cc4ccccc4)Nc4ccccc4)C=CC2O3)CC1 (centres unmarked) [Compound 278] | +++ | ++ |
| COC(=O)C1=C(C(=O)NC2CCN(CCO)CC2)C2C=CC1(C(Cc1ccccc1)Nc1ccccc1)O2 (centres unmarked) [Compound 279] | +++ | ++ |
| COC(=O)C1=C(C(=O)Nc2ccc(C)c(F)c2)C2C=CC1(C(Cc1ccccc1)Nc1ccccc1)O2 (centres unmarked) [Compound 285] | ++ | ++ |
| COC(=O)C1=C(C(=O)NC2CCN(C(C)=O)CC2)C2C=CC1(C(Cc1ccccc1)Nc1ccccc1)O2 (centres unmarked) [Compound 287] | ++ | ++ |
| COC(=O)C1=C(C(=O)NC2CCN(Cc3ccccc3)CC2)C2C=CC1(C(Cc1ccccc1)Nc1ccccc1)O2 (centres unmarked) [Compound 288] | ++ | ++ |
| COC(=O)C1=C(C(=O)Nc2ccc(C)nc2)C2C=CC1(C(Cc1ccccc1)Nc1ccccc1)O2 (centres unmarked) [Compound 289] | ++ | ++ |
| COC(=O)C1=C(C(=O)NC2CCN(C)CC2)C2C=CC1(C(Cc1ccccc1)Oc1ccccc1)O2 (centres unmarked) [Compound 292] | ++ | ++ |
| COC(=O)C1=C(C(=O)NC2CCN(C(=O)c3ccc(F)cc3)CC2)C2C=CC1(C(Cc1ccccc1)Nc1ccccc1)O2 (centres unmarked) [Compound 297] | ++ | ++ |
| CCOC(=O)C1=C(C(F)(F)F)C2(C(Cc3ccccc3)Nc3ccccc3)C=CC1O2 (centres unmarked) [Compound 298] | ++ | + |
| COC(=O)C1=C(C(=O)Nc2ccccc2)C2C=CC1(C(Cc1ccccc1)Nc1ccccc1)O2 (centres unmarked) [Compound 300] | +++ | + |
| COC(=O)C1=C(C(=O)NC2CCN(C)CC2)C2CCC1(C(Cc1ccccc1)Nc1ccccc1)O2 (centres unmarked) [Compound 304] | + | + |
| CNC(=O)C1=C(C(=O)Nc2ccccc2)C2C=CC1(C(Cc1ccccc1)Nc1ccccc1)O2 (centres unmarked) [Compound 305] | + | + |
| COC(=O)C1=C(C(=O)OC)C2(C(Cc3ccccc3)Nc3cccc(Oc4ccccc4)c3)C=CC1O2 (centres unmarked) [Compound 307] | +++ | + |
| COC(=O)C1=C(C(=O)Nc2ccc(OC)c(F)c2)C2C=CC1(C(Cc1ccccc1)Nc1ccccc1)O2 (centres unmarked) [Compound 308] | + | + |
| COC(=O)C1=C(C(=O)Nc2ccc3c(c2)OCO3)C2C=CC1(C(Cc1ccccc1)Nc1ccccc1)O2 (centres unmarked) [Compound 309] | + | + |
| COC(=O)C1=C(C(=O)O)C2(C(Cc3ccccc3)Nc3cc(F)cc(F)c3)C=CC1O2 (centres unmarked) [Compound 310] | + | + |
| COC(=O)C1=C(C(=O)NC2CCN(C)CC2)C2(C(Cc3ccccc3)Nc3cc(F)cc(F)c3)C=CC1O2 (centres unmarked) [Compound 311] | ++ | ++ |
| CCOC(=O)C1=C(C(=O)OCC)C2(C(Cc3ccccc3)Nc3ccc(F)cc3F)C=CC1O2 (centres unmarked) [Compound 312] | ++ | + |
| CC(C)(C)OC(=O)C1=C(C(=O)OC(C)(C)C)C2(C(Cc3ccccc3)Nc3ccc(F)cc3F)C=CC1O2 (centres unmarked) [Compound 313] | +++ | + |
| COC(=O)C1=C(C(=O)NNc2ccc(F)c(F)c2)C2C=CC1(C(Cc1ccccc1)Nc1cc(F)cc(F)c1)O2 (centres unmarked) [Compound 314] | ++ | + |
| COC(=O)C1=C(C(=O)NNc2ccc(F)c(F)c2)C2(C(Cc3ccccc3)Nc3cc(F)cc(F)c3)C=CC1O2 (centres unmarked) [Compound 315] | ++ | + |

— patent publication US11578079B2, “SUMO inhibitor compounds and uses thereof” (CITY OF HOPE, priority 2018, dated 2023)
